Measured values reported in paper PMC10464297, “Reevaluation of bromodomain ligands targeting BAZ2A” (Protein Science : A Publication of the Protein Society, 2023).
Entries after “also recorded” stand apart in the source; their conditions may differ.

Assays:
PC3 spheroids = assay: Spheroid growth (3D), PC3; type: cell-based
Experimental: (§1) Cell cultures, proliferation assay and spheroid gro wth […]
streptomycin and 2 m M L-glutamine. All cells were regularly tested for mycoplasma contamination. […]
Spheroids were obtained by plating PC3 and 22Rv1 cells in low -adhesion round bottom 96 -well […]
After seeding, the cells were centrifuged for 10 min at 1200 x g at 4°C. Spheroids were given 48 hours to form after seeding before adding the treatment or the carrier (0.1% DMSO). Medium supplemented with treatment/carrier was changed every 48 hours, for a total of 32 days for 22Rv1 and 16 days for PC3. Each spheroid was imaged in brightfield every day or every other day (after day 20), using a Leica DM IL microscope […]
equipped with a Leica DFC450C digital camera. The area of each spheroid was measured using ImageJ and the average area for each condition was calculated. The growth rate was analysed using the segmental linear regression algorithm of GraphPad Prism. The appropriateness of the model was evaluated by considering the R square values and the Replicates test (Suppl. Table 6). […]

[1] = test system: PC3 (AR‐negative) PCa cells; assay: 2D proliferation assay (resazurin), PC3; type: cell-based
Experimental: as §1
streptomycin and 2 m M L-glutamine. All cells were regularly tested for mycoplasma contamination.
For the proliferation assay, cells were counted with a hemocytometer and seeded in triplicates in 96-well plates (4 .5x10^3 cells/well for 22Rv1 and 2.0x103 for PC3) and let adhere overnight at 37°C, […]
transfected with siRNA for BAZ2A , RLUC or KIF11, as detailed below. The cells were incubated for 1, 3, 6 (PC3) and 9 days (22Rv1) and the medium containing either the carrier or the inhibitors was replaced every 3 day s. Cell proliferation and viability were determined at day 1, 3, 6 and 9 by adding 10% resazurin sodium salt solution (0. 03 mg/ml powder from Sigma -Aldrich) directly into each well and incubating them for 4h at 37°C, 5% CO 2. The absorbance at 570/600 nm was measured using a Varioskan plate reader. The reduction of the resazur in sodium salt was calculated using the formula: (Abs x – Abs 0. 1%DMSO day1)/(Abs 0. 1%DMSO day9 - Abs 0. 1%DMSO day1). The growth rate was analysed using the linear regression algorithm of GraphPad Prism. […]

PCa cells = assay: RT-qPCR of genes affected by BAZ2A genetic ablation; type: cell-based; settings: 25 μM, 6 days, PC3 and 22Rv1
Experimental: equipped with a Leica DFC450C digital camera. The area of each spheroid was measured using ImageJ and the average area for each condition was calculated. The growth rate was analysed using the segmental linear regression algorithm of GraphPad Prism. The appropriateness of the model was evaluated by considering the R square values and the Replicates test (Suppl. Table 6).
Cells were counted and plated in 6 well (for RNA extraction) or 96 well (for growth curve) at a […]
and 4.5x10^3 cells/well for 22Rv1) and let attach overnight at 37°C, 5% CO2. […] The gene expression was analyzed after 6 days from the cells seeded in the 6 well, while the viability was analyzed in the same way as for the cells treated with the […]
Cells were previously counted and plated in 6 well at a fixed amount (60.000 cells/well for PC3; 135.000 cells/well for 22Rv1). The RNA was extracted using the phenol-chloroform method and its concentration was measured by Nano spectrophotometer. […]
Total protein content was extracted from cells transfected with siRNA B AZ2A or siRNA RLU C (negative control). […] Cells were lysed using RIPA buffer and protein concentration was determined by Bradford Reagent (Sigma-Aldrich), according to the manufacturer’s instructions. […]

TNBC cells = test system: TNBC cells; set-up: method as in Bevill et al., [2019]; settings: single agent; ref Bevill et al., [2019]; cited from earlier work
[2] = test system: heterogeneous PCa cell population; set-up: method as in Peña‐Hernández et al., [2021]; settings: ref Peña‐Hernández et al., [2021]; cited from earlier work

## Cn1cc(CCn2cnc(-c3cnn(C)c3)c2-c2ccc(C#N)cc2)cn1 [BAZ2‐ICR]
PC3 spheroids; 3D setting, GSK2801 25 μM, BAZ2‐ICR 25 μM, BI9564 20 μM
  effect on growth of PC3 spheroids: did not significantly affect PC3 spheroids
PC3 spheroids; PC3 spheroids, 25 µM, after X0 = day 6
  slope2 (segmental linear regression of spheroid growth): 77288
PC3 spheroids; PC3 spheroids, 25 µM, before X0 = day 6
  slope1 (segmental linear regression of spheroid growth): 62282
[1]; 2D‐cell culture, PC3
  effect on 2D growth of PC3 cells: did not affect growth; also recorded: but not BAZ2‐ICR, reduces 2D growth
  effect on viability of PC3 cells: did not affect growth or viability
[1]; PC3, 0.5 µM
  Slope (best-fit, linear regression of growth curve): 0,1625
[1]; PC3, 5 µM
  Slope (best-fit, linear regression of growth curve): 0,1599
[1]; PC3, 10 µM
  Slope (best-fit, linear regression of growth curve): 0,1532
[1]; PC3, 25 µM
  Slope (best-fit, linear regression of growth curve): 0,1580
PCa cells
  transcription of a set of genes affected by BAZ2A genetic ablation: did not comparably alter the transcription
TNBC cells
  effect on TNBC cells: did not affect TNBC cells
[2]
  proliferation of heterogeneous PCa cell population: does not affect the proliferation
